From article PMC12251549, “Engineering a Radiohybrid PSMA Ligand with an Albumin-Binding Moiety and Pharmacokinetic Modulation via an Albumin-Binding Competitor for Radiotheranostics” (Molecules, 2025)
One block for each compound: values may come before it.

What was measured:
[1] = system: PSMA-expressing LNCaP cells; test: Cellular uptake and internalization in LNCaP cells, blocking with 2-PMPA; type: cell-based
Procedure: Cellular uptake experiments were performed according to a previous report with slight modifications. LNCaP cells expressing PSMA were cultured in RPMI 1640 medium containing 10% fetal bovine serum (FBS) and 1% penicillin–streptomycin on 6-well culture plates (containing 5 × 10^5 cells/well) for 24 h in a humidified atmosphere (5% CO2) incubator at 37 °C. After removing the medium and washing with phosphate-buffered saline (PBS) (−) once, a mixed solution of [^125I]5 and [^211At]6, [^125I]5 and [^67Ga]Ga-PSMA-617, and [^125I]5 and [^67Ga]5 in 1.0 mL of medium without FBS was added (3.7 kBq/each tracer/well). The final concentrations of the radioligands for [^125I]5, [^211At]6, and [^67Ga]5 were 45.5 pM, 0.2 pM, and 2.5 pM, respectively. These solutions containing radioligands were diluted in saline containing 0.05% (w/v) bovine serum albumin (BSA) to prevent adsorption to tubes or plates and further diluted with medium to 0.00125% as the final BSA concentration. After incubation for 10, 60, and 120 min, the medium from each well was removed, and the cells were washed twice with ice-cold PBS (−); the surface of the cells was washed twice with ice-cold 0.2 M glycine buffer (pH 3.0). The cells were lysed using a 1 M NaOH aqueous solution. The radioactivity of ^67Ga,^125I and ^211At in the 1 M NaOH aqueous solution was determined and defined as the internalized radioligand fraction using an auto well gamma counter (ARC-8001, Hitachi, Ltd., Tokyo, Japan) according to a previous paper. The radioactivity was determined with an auto well gamma counter and corrected for background radiation and physical decay during counting. A window from 16 to 69 keV was used for counting ^125I, and a window from 70 to 120 keV was used for counting ^211At. Correlation factors to eliminate any crossover of ^125I activity in the ^211At counts were determined by measuring the ^125I standard in each window. More than one week after the experiments, the radioactivity counts of ^125I were measured after the decay of ^211At. The protein amount in cells was quantified using a BCA Protein Assay Kit (Nacalai Tesque, Kyoto, Japan) according to the manufacturer’s protocol. All data were expressed as percent dose per milligram protein (%dose/mg protein). In blocking experiments, a selective inhibitor of the PSMA, (2S)-2-(phosphonomethyl)pentanedioic acid (2-PMPA) (final concentration 100 µM), was added to each well with tracers. After incubation for 10, 60, and 120 min, radioactivity and protein concentration were determined in the same manner as the experiment without the blocking agent.

[2] = In vitro stability test in 0.1 M phosphate buffer; type: physicochemical; conditions: 0.1 M PB solution containing 10% ethanol, 37 °C, 24 h, mean ± SD for three samples
Procedure: samples were analyzed by RP-HPLC using a Cosmosil 5C18-AR-II (4.6 × 150 mm) at a flow rate of 1 mL/min with a gradient mobile phase of 60% methanol in water with 0.1% trifluoroacetic acid (TFA) to 80% methanol in water with 0.1% TFA for 20 min.
In vitro stability test in 0.1 M PB solution containing 10% ethanol was performed. The […]
and 97.1 ± 0.9% (mean ± SD for three samples) after incubating at 37 °C for 24 h, […]

[3] = Biodistribution after intravenous co-injection of [125I]5 and [67Ga]Ga-PSMA-617 (Table S1); type: in vivo, normal mice (ddY); conditions: normal mice; for Biodistribution of radioactivity: Blood / Biodistribution of radioactivity: Bone / Biodistribution of radioactivity: Brain / Biodistribution of radioactivity: Heart / Biodistribution of radioactivity: Kidney / Biodistribution of radioactivity: L. Intestine / Biodistribution of radioactivity: Liver / Biodistribution of radioactivity: Lung / Biodistribution of radioactivity: Muscle / Biodistribution of radioactivity: Neck / Biodistribution of radioactivity: Pancreas / Biodistribution of radioactivity: S. Intestine / Biodistribution of radioactivity: Spleen / Biodistribution of radioactivity: Stomach: i.v.
Procedure: [^67Ga]Ga-PSMA-617 (37 kBq) and [^125I]5 (37 kBq) or [^125I]5 (37 kBq) and [^211At]6 (37 kBq) were intravenously co-administered into three or four normal mice at each timepoint (6 weeks male ddY mice, 28–30 g, Japan SLC, Inc., Hamamatsu, Japan). Mice were sacrificed at 10 min, 1 h, 4 h, and 24 h ([^67Ga]Ga-PSMA-617 and [^125I]5) or at 10 min, 1 h, 4 h, 12 h, and 24 h ([^125I]5 and [^211At]6) postinjection of the radiolabeled compounds. Tissues of interest were removed and weighed, and the radioactivity of ^67Ga and ^125I and ^125I and ^211At were determined with an auto well gamma counter (ARC-8001) and corrected for background radiation as described in the Cellular Uptake Experiments Section. To determine the amount and routes of the radioactivity excreted from the body for 24 h after the injection of radiolabeled compounds, mice were housed in metabolic cages (METABOLICA, SUGIYAMA-GEN Co., Ltd., Tokyo, Japan). Data are shown as the percentage of injected dose per gram of tissues (%ID/g) or %ID.

Radiochemical purity after incubation (in vitro stability) [2]: 93.1 ± 0.9%
Compound: O=C([O-])CN1CCN(CC(=O)[O-])CCN(CC(=O)NC(CCCCNC(=O)CCCc2ccc(I)cc2)C(=O)NCC2CCC(C(=O)NC(Cc3ccc4ccccc4c3)C(=O)NCCCCC(NC(=O)NC(CCC(=O)O)C(=O)O)C(=O)O)CC2)CCN(CC(=O)[O-])CC1.[67Ga+3] (centres unmarked) [[^67Ga]5]
Effect of excess 2-PMPA on cellular uptake ([1]; 2-PMPA 100 µM): significantly reduced

Excretion in feces ([3]; 24 h postinjection): 2.4 ± 0.3 %ID | Excretion in urine ([3]; 24 h postinjection): 58.0 ± 2.6 %ID | Biodistribution of radioactivity: Blood ([3]; 10 min after injection): 3.40 (0.42) % injected dose per gram | Biodistribution of radioactivity: Bone ([3]; 10 min after injection): 1.02 (0.23) % injected dose per gram | Biodistribution of radioactivity: Brain ([3]; 10 min after injection): 0.11 (0.02) % injected dose per gram | Biodistribution of radioactivity: Heart ([3]; 10 min after injection): 1.22 (0.11) % injected dose per gram | Biodistribution of radioactivity: Kidney ([3]; 10 min after injection): 69.46 (8.76) % injected dose per gram | Biodistribution of radioactivity: L. Intestine ([3]; 10 min after injection): 0.58 (0.07) % injected dose per gram | Biodistribution of radioactivity: Liver ([3]; 10 min after injection): 0.74 (0.10) % injected dose per gram | Biodistribution of radioactivity: Lung ([3]; 10 min after injection): 2.60 (0.40) % injected dose per gram | Biodistribution of radioactivity: Muscle ([3]; 10 min after injection): 0.75 (0.08) % injected dose per gram | Biodistribution of radioactivity: Neck ([3]; 10 min after injection): 0.02 (0.01) % injected dose | Biodistribution of radioactivity: Pancreas ([3]; 10 min after injection): 1.03 (0.18) % injected dose per gram | Biodistribution of radioactivity: S. Intestine ([3]; 10 min after injection): 0.75 (0.03) % injected dose per gram | Biodistribution of radioactivity: Spleen ([3]; 10 min after injection): 0.96 (0.09) % injected dose per gram | Biodistribution of radioactivity: Stomach ([3]; 10 min after injection): 0.38 (0.02) % injected dose | Biodistribution of radioactivity: Blood ([3]; 1 h after injection): 0.29 (0.04) % injected dose per gram | Biodistribution of radioactivity: Bone ([3]; 1 h after injection): 0.18 (0.04) % injected dose per gram | Biodistribution of radioactivity: Brain ([3]; 1 h after injection): 0.02 (0.00) % injected dose per gram | Biodistribution of radioactivity: Heart ([3]; 1 h after injection): 0.11 (0.00) % injected dose per gram | Biodistribution of radioactivity: Kidney ([3]; 1 h after injection): 16.32 (3.17) % injected dose per gram | Biodistribution of radioactivity: L. Intestine ([3]; 1 h after injection): 0.07 (0.01) % injected dose per gram | Biodistribution of radioactivity: Liver ([3]; 1 h after injection): 0.18 (0.07) % injected dose per gram | Biodistribution of radioactivity: Lung ([3]; 1 h after injection): 0.28 (0.03) % injected dose per gram | Biodistribution of radioactivity: Muscle ([3]; 1 h after injection): 0.09 (0.00) % injected dose per gram | Biodistribution of radioactivity: Neck ([3]; 1 h after injection): 0.00 (0.00) % injected dose | Biodistribution of radioactivity: Pancreas ([3]; 1 h after injection): 0.14 (0.03) % injected dose per gram | Biodistribution of radioactivity: S. Intestine ([3]; 1 h after injection): 0.16 (0.02) % injected dose per gram | Biodistribution of radioactivity: Spleen ([3]; 1 h after injection): 0.14 (0.01) % injected dose per gram | Biodistribution of radioactivity: Stomach ([3]; 1 h after injection): 0.07 (0.02) % injected dose | Biodistribution of radioactivity: Blood ([3]; 4 h after injection): 0.07 (0.01) % injected dose per gram | Biodistribution of radioactivity: Bone ([3]; 4 h after injection): 0.14 (0.05) % injected dose per gram | Biodistribution of radioactivity: Brain ([3]; 4 h after injection): 0.01 (0.00) % injected dose per gram | Biodistribution of radioactivity: Heart ([3]; 4 h after injection): 0.04 (0.02) % injected dose per gram | Biodistribution of radioactivity: Kidney ([3]; 4 h after injection): 1.54 (0.08) % injected dose per gram | Biodistribution of radioactivity: L. Intestine ([3]; 4 h after injection): 0.59 (0.79) % injected dose per gram | Biodistribution of radioactivity: Liver ([3]; 4 h after injection): 0.08 (0.01) % injected dose per gram | Biodistribution of radioactivity: Lung ([3]; 4 h after injection): 0.06 (0.01) % injected dose per gram | Biodistribution of radioactivity: Muscle ([3]; 4 h after injection): 0.02 (0.01) % injected dose per gram | Biodistribution of radioactivity: Neck ([3]; 4 h after injection): 0.00 (0.00) % injected dose | Biodistribution of radioactivity: Pancreas ([3]; 4 h after injection): 0.04 (0.02) % injected dose per gram | Biodistribution of radioactivity: S. Intestine ([3]; 4 h after injection): 0.22 (0.17) % injected dose per gram | Biodistribution of radioactivity: Spleen ([3]; 4 h after injection): 0.05 (0.01) % injected dose per gram | Biodistribution of radioactivity: Stomach ([3]; 4 h after injection): 0.07 (0.04) % injected dose | Biodistribution of radioactivity: Blood ([3]; 24 h after injection): 0.01 (0.00) % injected dose per gram | Biodistribution of radioactivity: Bone ([3]; 24 h after injection): 0.16 (0.04) % injected dose per gram | Biodistribution of radioactivity: Brain ([3]; 24 h after injection): 0.00 (0.00) % injected dose per gram | Biodistribution of radioactivity: Heart ([3]; 24 h after injection): 0.01 (0.01) % injected dose per gram | Biodistribution of radioactivity: Kidney ([3]; 24 h after injection): 0.29 (0.06) % injected dose per gram | Biodistribution of radioactivity: L. Intestine ([3]; 24 h after injection): 0.15 (0.11) % injected dose per gram | Biodistribution of radioactivity: Liver ([3]; 24 h after injection): 0.04 (0.01) % injected dose per gram | Biodistribution of radioactivity: Lung ([3]; 24 h after injection): 0.02 (0.01) % injected dose per gram | Biodistribution of radioactivity: Muscle ([3]; 24 h after injection): 0.01 (0.00) % injected dose per gram | Biodistribution of radioactivity: Neck ([3]; 24 h after injection): 0.00 (0.00) % injected dose | Biodistribution of radioactivity: Pancreas ([3]; 24 h after injection): 0.02 (0.01) % injected dose per gram | Biodistribution of radioactivity: S. Intestine ([3]; 24 h after injection): 0.04 (0.03) % injected dose per gram | Biodistribution of radioactivity: Spleen ([3]; 24 h after injection): 0.03 (0.01) % injected dose per gram | Biodistribution of radioactivity: Stomach ([3]; 24 h after injection): 0.05 (0.04) % injected dose
Compound: O=C([O-])CN1CCN(CC(=O)[O-])CCN(CC(=O)NCC2CCC(C(=O)NC(Cc3ccc4ccccc4c3)C(=O)NCCCCC(NC(=O)NC(CCC(=O)O)C(=O)O)C(=O)O)CC2)CCN(CC(=O)[O-])CC1.[67Ga+3] (centres unmarked) [[^67Ga]Ga-PSMA-617, reference compound]
Clearance from organs ([3]; 1 h postinjection): rapid clearance from most organs except the kidney | Cellular uptake and internalization levels compared with [125I]5 and [211At]6 [1]: lower
